Common to all, as to experiment: Kinase selectivity, scanMAX Kinase assay panel (DiscoverX), % control at 1 uM
What all share (type): binding

Test [1] addresses T1, scanMAX Kinase assay panel (Homo sapiens, UniProt P00533, G719C).
T1 construct: purchased DiscoverX
To be noted: EGFR (G719C); 1 uM; read-out: Percent Control (%). In outline:
(§1)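 1 uM cpd (DMSO) per kinase; % ctrl = [cpd − pos ctrl]/[neg ctrl − pos ctrl] × 100; hit if <35.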

Test [2] addresses T2, scanMAX Kinase assay panel (Homo sapiens, UniProt Q06418).
T2 construct: purchased DiscoverX
T2 sequence (Q06418 41-890): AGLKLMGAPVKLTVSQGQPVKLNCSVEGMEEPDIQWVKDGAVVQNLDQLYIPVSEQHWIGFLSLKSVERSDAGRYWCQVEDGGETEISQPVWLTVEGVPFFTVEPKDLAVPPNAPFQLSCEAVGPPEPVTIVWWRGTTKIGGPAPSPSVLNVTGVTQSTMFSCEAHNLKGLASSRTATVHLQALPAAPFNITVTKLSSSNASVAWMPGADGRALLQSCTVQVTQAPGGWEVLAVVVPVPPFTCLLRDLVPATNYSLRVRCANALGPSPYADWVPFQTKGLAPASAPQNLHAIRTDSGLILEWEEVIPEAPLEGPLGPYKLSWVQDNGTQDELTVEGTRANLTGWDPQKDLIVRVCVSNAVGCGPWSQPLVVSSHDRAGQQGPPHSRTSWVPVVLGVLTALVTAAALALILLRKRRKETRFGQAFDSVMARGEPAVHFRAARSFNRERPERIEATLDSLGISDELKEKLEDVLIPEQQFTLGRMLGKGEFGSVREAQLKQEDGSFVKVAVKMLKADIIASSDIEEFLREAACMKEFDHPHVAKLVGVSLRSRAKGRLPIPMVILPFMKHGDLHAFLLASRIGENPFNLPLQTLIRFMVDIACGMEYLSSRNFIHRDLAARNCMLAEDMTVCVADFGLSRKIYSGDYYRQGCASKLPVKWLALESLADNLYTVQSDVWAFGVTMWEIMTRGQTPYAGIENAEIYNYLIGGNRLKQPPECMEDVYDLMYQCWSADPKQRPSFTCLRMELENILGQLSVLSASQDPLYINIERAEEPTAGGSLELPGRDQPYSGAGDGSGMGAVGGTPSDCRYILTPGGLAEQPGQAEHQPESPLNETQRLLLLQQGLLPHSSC
To be noted: TYRO3; 1 uM; read-out: Percent Control (%). In outline:
as §1

In test [3] the target is T3, scanMAX Kinase assay panel (Homo sapiens, UniProt P49760).
T3 construct: purchased DiscoverX
To be noted: CLK2; 1 uM; read-out: Percent Control (%). A digest of the protocol: as §1

For test [4], the target named is T4, scanMAX Kinase assay panel (Homo sapiens, UniProt Q00526).
T4 construct: purchased DiscoverX
As to conditions: CDK3; 1 uM; read-out: Percent Control (%). A digest of the protocol:
as §1

In test [5] the target is T5, scanMAX Kinase assay panel (Homo sapiens, UniProt Q15746).
T5 construct: purchased DiscoverX
To be noted: MYLK; 1 uM; read-out: Percent Control (%). In outline:
as §1

For test [6], the target named is T6, scanMAX Kinase assay panel (Homo sapiens, UniProt P45984).
T6 construct: purchased DiscoverX
To be noted: JNK2; 1 uM; read-out: Percent Control (%). A digest of the protocol:
as §1

For test [7], the target named is T7, scanMAX Kinase assay panel (Homo sapiens, UniProt O14920).
T7 construct: purchased DiscoverX
T7 sequence (O14920 1-756): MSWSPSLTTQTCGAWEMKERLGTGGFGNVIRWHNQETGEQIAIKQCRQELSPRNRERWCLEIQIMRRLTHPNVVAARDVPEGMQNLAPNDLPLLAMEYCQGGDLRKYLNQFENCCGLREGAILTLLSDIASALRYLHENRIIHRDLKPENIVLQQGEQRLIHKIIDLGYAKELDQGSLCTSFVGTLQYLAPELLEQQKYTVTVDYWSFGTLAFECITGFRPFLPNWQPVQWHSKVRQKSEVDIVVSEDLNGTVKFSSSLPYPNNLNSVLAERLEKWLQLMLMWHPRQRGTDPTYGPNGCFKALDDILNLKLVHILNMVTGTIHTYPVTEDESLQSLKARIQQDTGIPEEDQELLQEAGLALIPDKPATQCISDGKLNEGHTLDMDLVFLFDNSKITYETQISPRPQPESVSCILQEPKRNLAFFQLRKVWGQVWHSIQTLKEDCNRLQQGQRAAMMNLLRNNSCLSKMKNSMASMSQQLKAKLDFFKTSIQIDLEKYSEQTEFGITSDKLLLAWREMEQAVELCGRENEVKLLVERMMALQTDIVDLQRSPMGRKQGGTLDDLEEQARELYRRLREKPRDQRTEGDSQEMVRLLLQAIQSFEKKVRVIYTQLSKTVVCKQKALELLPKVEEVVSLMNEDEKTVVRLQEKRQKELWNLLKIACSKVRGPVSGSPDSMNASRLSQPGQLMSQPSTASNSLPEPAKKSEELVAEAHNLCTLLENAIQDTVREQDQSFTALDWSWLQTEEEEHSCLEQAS
As to conditions: IKK-beta; 1 uM; read-out: Percent Control (%). A digest of the protocol:
as §1

For test [8], the target named is T8, scanMAX Kinase assay panel (Homo sapiens, UniProt P00533, L861Q).
T8 construct: purchased DiscoverX
As to conditions: EGFR (L861Q); 1 uM; read-out: Percent Control (%). A digest of the protocol:
as §1

Test [9] has as its target T9, scanMAX Kinase assay panel (Homo sapiens, UniProt Q13153).
T9 construct: purchased DiscoverX
As to conditions: PAK1; 1 uM; read-out: Percent Control (%). A digest of the protocol: as §1

Test [10] concerns the target T10, scanMAX Kinase assay panel (Homo sapiens, UniProt Q8IVW4).
T10 construct: purchased DiscoverX
As to conditions: CDKL3; 1 uM; read-out: Percent Control (%). In outline: as §1

This is an account of results in patent publication US10870647B2, “Imidazopyridine derivative, method for preparing same, and pharmaceutical composition containing same as active ingredient for preventing or treating cancer” (DAEGU-GYEONGBUK MEDICAL INNOVATION FOUNDATION, priority 2016, dated 2020).

T9 sequence (Q13153 whole entry): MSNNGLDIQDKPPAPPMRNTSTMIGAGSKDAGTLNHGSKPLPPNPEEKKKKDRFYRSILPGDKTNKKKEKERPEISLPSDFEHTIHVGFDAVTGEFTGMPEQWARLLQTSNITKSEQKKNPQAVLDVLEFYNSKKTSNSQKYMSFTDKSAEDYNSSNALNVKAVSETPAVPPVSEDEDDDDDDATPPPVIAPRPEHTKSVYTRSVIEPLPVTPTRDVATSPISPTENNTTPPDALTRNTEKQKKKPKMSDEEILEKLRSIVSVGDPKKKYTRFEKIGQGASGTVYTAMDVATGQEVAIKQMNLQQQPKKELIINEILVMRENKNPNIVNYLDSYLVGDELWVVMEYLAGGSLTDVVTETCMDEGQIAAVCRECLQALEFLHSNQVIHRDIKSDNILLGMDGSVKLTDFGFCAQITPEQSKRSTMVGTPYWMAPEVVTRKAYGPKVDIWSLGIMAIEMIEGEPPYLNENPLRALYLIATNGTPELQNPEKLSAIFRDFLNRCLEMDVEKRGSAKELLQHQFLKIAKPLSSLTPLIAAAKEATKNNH
T5 sequence (Q15746 whole entry): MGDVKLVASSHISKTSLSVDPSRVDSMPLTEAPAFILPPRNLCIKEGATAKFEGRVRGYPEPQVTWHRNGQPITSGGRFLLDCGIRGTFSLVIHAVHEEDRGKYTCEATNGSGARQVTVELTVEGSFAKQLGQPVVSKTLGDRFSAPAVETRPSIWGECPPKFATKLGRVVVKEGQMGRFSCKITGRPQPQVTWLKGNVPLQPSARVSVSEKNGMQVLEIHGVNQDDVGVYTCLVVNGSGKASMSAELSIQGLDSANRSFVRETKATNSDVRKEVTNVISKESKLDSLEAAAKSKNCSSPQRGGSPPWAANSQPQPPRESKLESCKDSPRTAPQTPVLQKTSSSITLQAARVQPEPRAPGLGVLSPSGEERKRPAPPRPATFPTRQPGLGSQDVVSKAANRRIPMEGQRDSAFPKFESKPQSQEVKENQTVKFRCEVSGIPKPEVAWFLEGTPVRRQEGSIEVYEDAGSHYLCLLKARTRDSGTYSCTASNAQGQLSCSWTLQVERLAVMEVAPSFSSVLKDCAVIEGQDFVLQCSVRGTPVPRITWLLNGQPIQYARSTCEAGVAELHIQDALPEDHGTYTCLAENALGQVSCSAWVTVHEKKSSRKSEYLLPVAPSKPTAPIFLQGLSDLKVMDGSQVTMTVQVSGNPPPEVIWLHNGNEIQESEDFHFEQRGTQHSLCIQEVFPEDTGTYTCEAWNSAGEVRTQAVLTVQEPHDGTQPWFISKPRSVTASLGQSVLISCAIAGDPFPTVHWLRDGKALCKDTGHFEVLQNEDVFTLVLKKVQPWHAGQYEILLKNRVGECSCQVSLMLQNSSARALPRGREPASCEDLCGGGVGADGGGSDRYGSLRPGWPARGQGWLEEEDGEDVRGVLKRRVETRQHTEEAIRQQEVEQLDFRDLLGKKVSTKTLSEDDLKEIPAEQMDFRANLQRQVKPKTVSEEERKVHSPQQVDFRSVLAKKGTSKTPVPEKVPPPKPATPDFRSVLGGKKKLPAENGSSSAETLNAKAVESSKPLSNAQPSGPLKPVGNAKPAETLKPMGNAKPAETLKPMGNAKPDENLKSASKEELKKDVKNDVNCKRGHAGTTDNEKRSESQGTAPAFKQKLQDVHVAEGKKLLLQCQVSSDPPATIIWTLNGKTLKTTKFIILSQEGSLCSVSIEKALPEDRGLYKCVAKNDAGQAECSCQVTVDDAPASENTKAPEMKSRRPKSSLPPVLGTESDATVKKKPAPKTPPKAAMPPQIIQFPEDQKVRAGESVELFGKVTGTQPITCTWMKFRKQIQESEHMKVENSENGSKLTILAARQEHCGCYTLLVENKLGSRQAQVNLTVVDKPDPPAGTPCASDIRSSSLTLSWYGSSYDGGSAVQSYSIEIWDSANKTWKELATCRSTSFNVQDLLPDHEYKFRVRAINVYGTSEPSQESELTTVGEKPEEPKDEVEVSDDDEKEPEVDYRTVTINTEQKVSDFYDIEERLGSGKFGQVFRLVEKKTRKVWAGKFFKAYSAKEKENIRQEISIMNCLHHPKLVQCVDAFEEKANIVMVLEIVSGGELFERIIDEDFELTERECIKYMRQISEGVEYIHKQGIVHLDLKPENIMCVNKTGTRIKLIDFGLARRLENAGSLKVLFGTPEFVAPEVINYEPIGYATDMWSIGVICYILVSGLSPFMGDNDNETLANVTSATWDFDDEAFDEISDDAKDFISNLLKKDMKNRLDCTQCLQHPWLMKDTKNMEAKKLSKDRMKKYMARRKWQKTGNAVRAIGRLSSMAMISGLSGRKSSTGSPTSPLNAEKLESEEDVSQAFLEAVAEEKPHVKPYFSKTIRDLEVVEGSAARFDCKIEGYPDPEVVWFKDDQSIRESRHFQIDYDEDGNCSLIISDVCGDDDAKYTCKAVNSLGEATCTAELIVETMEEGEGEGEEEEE
T6 sequence (P45984 whole entry): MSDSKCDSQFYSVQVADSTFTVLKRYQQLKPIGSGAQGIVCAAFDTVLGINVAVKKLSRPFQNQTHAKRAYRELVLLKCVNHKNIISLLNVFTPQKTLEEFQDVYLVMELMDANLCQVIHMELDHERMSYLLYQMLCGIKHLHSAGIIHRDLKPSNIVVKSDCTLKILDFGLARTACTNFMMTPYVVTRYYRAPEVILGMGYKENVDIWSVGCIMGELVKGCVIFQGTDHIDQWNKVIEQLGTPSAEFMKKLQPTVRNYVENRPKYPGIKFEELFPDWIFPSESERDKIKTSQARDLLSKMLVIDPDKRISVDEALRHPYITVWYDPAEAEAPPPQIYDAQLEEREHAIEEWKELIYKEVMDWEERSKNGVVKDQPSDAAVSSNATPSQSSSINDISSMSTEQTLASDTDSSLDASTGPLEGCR
T8 sequence (P00533 25-1210 L861Q): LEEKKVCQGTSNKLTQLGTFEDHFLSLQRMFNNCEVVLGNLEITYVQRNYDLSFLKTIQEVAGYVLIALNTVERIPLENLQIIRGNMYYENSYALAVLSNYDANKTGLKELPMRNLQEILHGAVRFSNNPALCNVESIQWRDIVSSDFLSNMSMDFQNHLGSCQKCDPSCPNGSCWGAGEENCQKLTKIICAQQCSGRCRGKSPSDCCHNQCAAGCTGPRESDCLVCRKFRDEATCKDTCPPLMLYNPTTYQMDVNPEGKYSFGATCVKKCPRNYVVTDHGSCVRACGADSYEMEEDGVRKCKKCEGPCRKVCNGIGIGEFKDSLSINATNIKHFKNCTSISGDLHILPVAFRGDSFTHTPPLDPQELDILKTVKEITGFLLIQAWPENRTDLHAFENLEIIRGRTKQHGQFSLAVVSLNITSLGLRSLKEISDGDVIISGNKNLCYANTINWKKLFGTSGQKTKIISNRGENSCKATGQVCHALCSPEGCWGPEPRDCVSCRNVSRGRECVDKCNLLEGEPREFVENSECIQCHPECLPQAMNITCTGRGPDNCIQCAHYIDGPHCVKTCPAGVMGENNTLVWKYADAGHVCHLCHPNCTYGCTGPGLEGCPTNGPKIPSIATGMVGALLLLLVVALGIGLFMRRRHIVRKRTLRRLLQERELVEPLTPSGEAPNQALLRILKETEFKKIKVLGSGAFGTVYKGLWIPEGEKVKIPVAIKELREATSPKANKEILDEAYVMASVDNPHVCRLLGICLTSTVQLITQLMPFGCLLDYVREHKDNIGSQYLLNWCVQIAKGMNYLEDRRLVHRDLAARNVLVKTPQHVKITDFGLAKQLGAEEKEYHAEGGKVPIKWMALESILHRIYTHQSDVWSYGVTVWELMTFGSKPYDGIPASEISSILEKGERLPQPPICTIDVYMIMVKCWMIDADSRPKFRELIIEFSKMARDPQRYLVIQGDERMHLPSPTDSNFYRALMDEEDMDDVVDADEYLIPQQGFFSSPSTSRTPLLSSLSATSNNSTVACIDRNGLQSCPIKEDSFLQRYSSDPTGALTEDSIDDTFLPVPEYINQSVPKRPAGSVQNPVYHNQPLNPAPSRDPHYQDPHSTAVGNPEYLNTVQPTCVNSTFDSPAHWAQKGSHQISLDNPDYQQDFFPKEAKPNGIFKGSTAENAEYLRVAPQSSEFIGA
T3 sequence (P49760 whole entry): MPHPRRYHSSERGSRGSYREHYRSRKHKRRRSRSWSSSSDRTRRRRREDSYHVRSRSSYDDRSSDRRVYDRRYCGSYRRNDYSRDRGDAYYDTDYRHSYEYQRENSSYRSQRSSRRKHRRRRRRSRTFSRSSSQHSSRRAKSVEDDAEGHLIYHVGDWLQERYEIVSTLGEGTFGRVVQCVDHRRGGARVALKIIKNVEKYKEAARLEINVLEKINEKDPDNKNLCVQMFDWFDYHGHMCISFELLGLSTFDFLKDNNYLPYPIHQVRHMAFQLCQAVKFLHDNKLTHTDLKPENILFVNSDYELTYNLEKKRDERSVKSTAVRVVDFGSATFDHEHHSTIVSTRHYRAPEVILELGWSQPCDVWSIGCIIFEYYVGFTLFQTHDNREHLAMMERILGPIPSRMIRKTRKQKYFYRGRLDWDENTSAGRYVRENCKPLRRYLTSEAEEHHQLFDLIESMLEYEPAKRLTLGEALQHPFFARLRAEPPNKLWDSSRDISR
T4 sequence (Q00526 whole entry): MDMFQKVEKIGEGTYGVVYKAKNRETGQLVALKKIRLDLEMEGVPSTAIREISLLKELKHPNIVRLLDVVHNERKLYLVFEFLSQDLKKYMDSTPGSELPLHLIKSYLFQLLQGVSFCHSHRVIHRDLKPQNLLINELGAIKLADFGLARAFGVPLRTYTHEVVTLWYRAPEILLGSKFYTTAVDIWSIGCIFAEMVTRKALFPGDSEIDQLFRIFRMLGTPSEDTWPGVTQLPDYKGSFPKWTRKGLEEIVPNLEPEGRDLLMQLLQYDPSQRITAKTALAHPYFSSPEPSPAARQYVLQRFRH

In the case of `Cc1ccc(C(=O)Nc2ccc(CN3CCN(C)CC3)c(C(F)(F)F)c2)cc1C#Cc1cnc2c(Nc3cnn(C)c3)cccn12` [Example 1, 4-methyl-3-((8-((1-methyl-1H-pyrazol-4-yl)amino)imidazo[1,2-a]pyridin-3-yl)ethynyl)-N-(4-((4-methylpiperazin-1-yl)methyl)-3-(trifluoromethyl)phenyl)benzamide], the remaining binding at 1 µM was 1% in test [1]; 21% in test [2]; 64% in test [3]; 62% in [4]; 64% in [5]; 0% in test [6]. Besides, the remaining binding at 1 µM in test [7] came out at 3%; in test [8], 1%; in test [9], 89%; in test [10] it was 1%.

On to `Cc1cn(-c2cc(NC(=O)c3ccc(C)c(C#Cc4cnc5c(Nc6cnn(C)c6)cccn45)c3)cc(C(F)(F)F)c2)cn1` [Example 12, 4-methyl-N-(3-(4-methyl-1H-imidazol-1-yl)-5-(trifluoromethyl)phenyl)-3-((8-((1-methyl-1H-pyrazol-4-yl)amino)imidazo[1,2-a]pyridin-3-yl)ethynyl)benzamide], for which the remaining binding at 1 µM in test [1] was 21%; in test [2] it was 42%; in test [3], 91%; in test [4], 89%; in test [5], 100%; in [6], 66%. Moreover, the remaining binding at 1 µM is 39% in [7], 22% in test [8], 87% in [9] and 53% in [10].

With `Cc1ccc(NC(=O)C2(C(=O)Nc3ccc(F)cc3)CC2)cc1C#Cc1cnc2c(Nc3cnn(C(C)C)c3)cccn12` [Example 78], the remaining binding at 1 µM in test [1] amounted to 97%; in test [2] it was 95%; in [3], 100%; in test [4], 86%; in [5], 100%; in test [6] it was 100%. Further, the remaining binding at 1 µM amounted to 100% in test [7], 92% in test [8], 100% in [9] and 100% in [10].
